Test results as given in publication PMC9415608, “Design, Synthesis and Biological Investigation of 2-Anilino Triazolopyrimidines as Tubulin Polymerization Inhibitors with Anticancer Activities” (Pharmaceuticals, 2022).
Read-outs that look alike come from different tables or passages of the source.

Experiments:
MDA-MB-231 = assay: In vitro cell growth inhibition, resazurin viability assay; format: cell-based, human; settings: Homo sapiens, MDA-MB-231; 72 h, resazurin; mean ± SE
Procedure: (§1) All the cell lines used in this paper were of human origin and purchased from the American Type Culture Collection (ATCC, Manassas, VA, USA). Colon adenocarcinoma (HT-29), non-small cell lung carcinoma (A549), cervix carcinoma (HeLa) and breast adenocarcinoma (MDA-MB-231) cells were grown in RPMI (HT29) or DMEM (A549, HeLa, MDA-MB-231) medium (Gibco, Milano, Italy). Both media were supplemented with 115 units/mL of penicillin G (Gibco, Milano, Italy), 115 μg/mL of streptomycin (Invitrogen, Milano, Italy) and 10% fetal bovine serum (Invitrogen, Milano, Italy). All cell lines were grown at 37 °C in a humidified 5% CO2 atmosphere. The cells were grown in 2 mL of complete medium.
(§2) Stock solutions were prepared for each compound by dissolving in DMSO at the final concentration of 10 mM.
(§3) The cells were seeded in 96-well plates at the appropriate density for each cell line. The respective cell line densities used for the antiproliferative assay were HeLa and HT29 5000 cells/well, A549 4000 cells/well and MDA-MB-231 7000 cells/well. The total volume of medium was 100 µL. After 24 h, the cells were treated by performing serial 5-fold dilutions of the tested compounds starting from a concentration of 10 μM. All experimental conditions were tested in triplicate for statistical analysis. After 72 h of incubation, 10 μL of 100 μg/mL resazurin solution was added to each well and the plate was re-incubated for 3–4 h. The fluorescence of the wells in each plate was monitored using a Spark 10M spectrophotometer (Tecan Group Ltd., Mannedorf, Switzerland) with a 535 nm excitation wavelength and a 600 nm emission wavelength.

HeLa = assay: as above; format: cell-based, human; settings: for IC50: Homo sapiens, 72 h, resazurin, mean ± SE
Procedure: as §1, §2, §3

HT29 = assay: as above; format: cell-based, human; settings: for IC50: Homo sapiens, HT-29, 72 h, resazurin, mean ± SE
Procedure: as §1, §2, §3

A549 = assay: as above; format: cell-based, human; settings: Homo sapiens, A549; 72 h, resazurin; mean ± SE
Procedure: as §1, §2, §3

[1] = system: MDA-MB-231, HeLa, A549 and HT-29 cancer cell lines; assay: Antiproliferative activity stated across the panel of cancer cell lines; format: cell-based, human; settings: for IC50: Homo sapiens, read-out: IC50
Procedure: as §1, §2, §3

[2] = stated for the panel of cancer cell lines as a whole

Compound	IC50 (MDA-MB-231)	IC50 (HeLa)	IC50 (HT29)	IC50 (A549)	IC50 [1, 2]	melting point	IC50 ([1]; against three of the four cancer cell lines (not HT-29))	fold reduction in antiproliferative activity relative to 3d ([1]; range over cell lines)	fold reduction in potency relative to 3a (HT29; HT-29 cells)	fold more active than 3n (HeLa; HeLa cells)	fold more active than 3n (HT29; HT-29 cells)	fold increase in antiproliferative activity relative to 3k ([1]; three of the four cancer cell lines)
CCOc1ccc(Nc2nc3nccc(-c4cc(OC)c(OC)c(OC)c4)n3n2)cc1 [Compound 3m, N-(4-Ethoxyphenyl)-7-(3,4,5-trimethoxyphenyl)-[1,2,4]triazolo[1,5-a]pyrimidin-2-amine]	> 10 µM	> 10 µM	6.16 ± 0.97 µM	> 10 µM	> 10 µM	205 to 207 °C	–	–	–	–	–	–
COc1cc(-c2ccnc3nc(Nc4ccccc4)nn23)cc(OC)c1OC [Compound 3a, N-Phenyl-7-(3,4,5-trimethoxyphenyl)-[1,2,4]triazolo[1,5-a]pyrimidin-2-amine]	–	–	–	–	–	235 to 236 °C	–	–	–	–	–	–
COc1cc(-c2ccnc3nc(Nc4cccc(C)c4)nn23)cc(OC)c1OC [Compound 3e, N-(m-Tolyl)-7-(3,4,5-trimethoxyphenyl)-[1,2,4]triazolo[1,5-a]pyrimidin-2-amine]	> 10 µM	0.39 ± 0.02 µM	1.38 ± 0.09 µM	1.87 ± 0.17 µM	–	229 to 230 °C	–	10–46 fold	–	–	–	–
COc1cc(-c2ccnc3nc(Nc4cccnc4)nn23)cc(OC)c1OC [Compound 3b, N-(Pyridin-3-yl)-7-(3,4,5-trimethoxyphenyl)-[1,2,4]triazolo[1,5-a]pyrimidin-2-amine]	> 10 µM	> 10 µM	3.42 ± 0.41 µM	> 10 µM	–	172 to 174 °C	> 10 µM	–	3 fold	–	–	–
COc1cc(-c2ccnc3nc(Nc4ccc5c(c4)OCO5)nn23)cc(OC)c1OC [Compound 3n, N-(Benzo[d][1,3]dioxol-5-yl)-7-(3,4,5-trimethoxyphenyl)-[1,2,4]triazolo[1,5-a]pyrimidin-2-amine]	6.1 ± 1.72 µM	–	1.39 ± 0.06 µM	1.44 ± 0.26 µM	–	234 to 236 °C	–	–	–	–	–	1.5- to 4 fold
COc1cc(-c2ccnc3nc(Nc4cc(C)cc(C)c4)nn23)cc(OC)c1OC [Compound 3g, N-(3,5-Dimethylphenyl)-7-(3,4,5-trimethoxyphenyl)-[1,2,4]triazolo[1,5-a]pyrimidin-2-amine]	> 10 µM	> 10 µM	> 10 µM	> 10 µM	> 10 µM	228 to 230 °C	–	–	–	–	–	–
CCCc1ccc(Nc2nc3nccc(-c4cc(OC)c(OC)c(OC)c4)n3n2)cc1 [Compound 3i, N-(4-Propylphenyl)-7-(3,4,5-trimethoxyphenyl)-[1,2,4]triazolo[1,5-a]pyrimidin-2-amine]	> 10 µM	> 10 µM	> 10 µM	> 10 µM	–	185 to 187 °C	–	–	–	–	–	–
COc1cc(-c2ccnc3nc(Nc4ccc(C(C)C)cc4)nn23)cc(OC)c1OC [Compound 3j, N-(4-Isopropylphenyl)-7-(3,4,5-trimethoxyphenyl)-[1,2,4]triazolo[1,5-a]pyrimidin-2-amine]	> 10 µM	4.7 ± 0.59 µM	> 10 µM	> 10 µM	–	212 to 214 °C	–	–	–	–	–	–
COc1cc(-c2ccnc3nc(Nc4ccc(F)cc4)nn23)cc(OC)c1OC [Compound 3c, N-(4-Fluorophenyl)-7-(3,4,5-trimethoxyphenyl)-[1,2,4]triazolo[1,5-a]pyrimidin-2-amine]	> 10 µM	5.44 ± 1.05 µM	> 10 µM	> 10 µM	–	234 to 235 °C	–	–	–	–	–	–
COc1ccc(Nc2nc3nccc(-c4cc(OC)c(OC)c(OC)c4)n3n2)cc1 [Compound 3k, N-(4-Methoxyphenyl)-7-(3,4,5-trimethoxyphenyl)-[1,2,4]triazolo[1,5-a]pyrimidin-2-amine]	–	–	–	–	–	213 to 215 °C	–	–	–	–	–	–

Continued, in another order:

IC50 (MDA-MB-231)	IC50 (HeLa)	IC50 (HT29)	IC50 (A549)	IC50 [1, 2]	melting point	IC50 ([1]; against three of the four cancer cell lines (not HT-29))	Compound	fold reduction in antiproliferative activity relative to 3d ([1]; range over cell lines)	fold reduction in potency relative to 3a (HT29; HT-29 cells)	fold more active than 3n (HeLa; HeLa cells)	fold more active than 3n (HT29; HT-29 cells)	fold increase in antiproliferative activity relative to 3k ([1]; three of the four cancer cell lines)
> 10 µM	> 10 µM	> 10 µM	> 10 µM	–	171 to 173 °C	–	COc1cc(-c2ccnc3nc(NCc4ccc(Cl)cc4)nn23)cc(OC)c1OC [Compound 3q, N-(4-Chlorobenzyl)-7-(3,4,5-trimethoxyphenyl)-[1,2,4]triazolo[1,5-a]pyrimidin-2-amine]	–	–	–	–	–
9.3 ± 0.22 µM	> 10 µM	> 10 µM	> 10 µM	> 10 µM	144 to 146 °C	–	COc1cc(-c2ccnc3nc(NCc4ccccc4)nn23)cc(OC)c1OC [Compound 3p, N-Benzyl-7-(3,4,5-trimethoxyphenyl)-[1,2,4]triazolo[1,5-a]pyrimidin-2-amine]	–	–	–	–	–
> 10 µM	> 10 µM	> 10 µM	> 10 µM	> 10 µM	190 to 192 °C	–	COc1ccc(CNc2nc3nccc(-c4cc(OC)c(OC)c(OC)c4)n3n2)cc1 [Compound 3s, N-(4-Methoxybenzyl)-7-(3,4,5-trimethoxyphenyl)-[1,2,4]triazolo[1,5-a]pyrimidin-2-amine]	–	–	–	–	–
8.7 ± 1.1 µM	> 10 µM	6.74 ± 0.5 µM	> 10 µM	> 10 µM	138 to 139 °C	–	COc1cc(-c2ccnc3nc(NCCc4ccccc4)nn23)cc(OC)c1OC [Compound 3u, N-Phenethyl-7-(3,4,5-trimethoxyphenyl)-[1,2,4]triazolo[1,5-a]pyrimidin-2-amine]	–	–	–	–	–
> 10 µM	0.29 ± 0.031 µM	0.67 ± 0.12 µM	2.42 ± 0.12 µM	–	212 to 214 °C	–	COc1cc(-c2ccnc3nc(Nc4ccc5c(c4)OCCO5)nn23)cc(OC)c1OC [Compound 3o, N-(2,3-Dihydrobenzo[b][1,4]dioxin-6-yl)-7-(3,4,5-trimethoxyphenyl)-[1,2,4]triazolo[1,5-a]pyrimidin-2-amine]	–	–	3 fold	2 fold	–
> 10 µM	> 10 µM	> 10 µM	> 10 µM	> 10 µM	233 to 235 °C	–	COc1cc(-c2ccnc3nc(NCc4ccc5c(c4)OCO5)nn23)cc(OC)c1OC [Compound 3t, N-(Benzo[d][1,3]dioxol-5-ylmethyl)-7-(3,4,5-trimethoxyphenyl)-[1,2,4]triazolo[1,5-a]pyrimidin-2-amine]	–	–	–	–	–
> 10 µM	> 10 µM	> 10 µM	> 10 µM	> 10 µM	156 to 158 °C	–	COc1cc(-c2ccnc3nc(NCc4ccc(C)cc4)nn23)cc(OC)c1OC [Compound 3r, N-(4-Methylbenzyl)-7-(3,4,5-trimethoxyphenyl)-[1,2,4]triazolo[1,5-a]pyrimidin-2-amine]	–	–	–	–	–
> 10 µM	> 10 µM	> 10 µM	> 10 µM	> 10 µM	98 to 100 °C	–	COc1cc(-c2ccnc3nc(NCCCc4ccccc4)nn23)cc(OC)c1OC [Compound 3v, N-(3-Phenylpropyl)-7-(3,4,5-trimethoxyphenyl)-[1,2,4]triazolo[1,5-a]pyrimidin-2-amine]	–	–	–	–	–
